Test results reported in BindingDB's records for doi:10.7270/Q2QF8R9S (Vanderbilt Screening Center For Gpcrs, Ion Channels and …, 2010).

Biological target: T1, Muscarinic acetylcholine receptor M1 (Rattus norvegicus, UniProt P08482)
T1 sequence (P08482 whole entry): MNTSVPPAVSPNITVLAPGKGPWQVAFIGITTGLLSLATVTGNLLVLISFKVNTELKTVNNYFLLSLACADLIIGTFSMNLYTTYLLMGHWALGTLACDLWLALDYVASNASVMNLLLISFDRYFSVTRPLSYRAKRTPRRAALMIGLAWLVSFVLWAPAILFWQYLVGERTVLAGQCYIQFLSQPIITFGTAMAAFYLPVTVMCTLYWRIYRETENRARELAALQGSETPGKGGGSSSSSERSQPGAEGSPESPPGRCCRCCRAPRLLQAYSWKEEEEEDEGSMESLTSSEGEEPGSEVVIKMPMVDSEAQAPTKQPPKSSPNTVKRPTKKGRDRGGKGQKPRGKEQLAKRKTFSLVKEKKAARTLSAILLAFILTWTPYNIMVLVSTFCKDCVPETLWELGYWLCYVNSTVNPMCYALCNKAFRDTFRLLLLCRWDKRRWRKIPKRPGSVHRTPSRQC
Experiment: structure-activity potentiation of ACh at M1 – cell-based, calcium mobilization, CHO-K1, SAR follow-up (AID 2651)

Row | SMILES | EC50 [µM] | EC50 (inactive by the depositor's call) [µM]
1 | Cc1cc(NC(=O)CS(=O)(=O)c2cn(Cc3cccc(-c4ccc(Cl)nc4)c3)c3ccccc23)no1 |  | 30
2 | Cc1cc(NC(=O)CS(=O)(=O)c2cn(Cc3ccccc3Cl)c3ccccc23)no1 [2-[1-[(2-chlorophenyl)methyl]indol-3-yl]sulfonyl-N-(5-methyl-1,2-oxazol-3-yl)acetamide] | 10 | 
3 | Cc1cc(NC(=O)CS(=O)(=O)c2cn(Cc3cccc(Br)c3)c3cc(F)cc(F)c23)no1 [2-[1-[(3-bromophenyl)methyl]-4,6-bis(fluoranyl)indol-3-yl]sulfonyl-N-(5-methyl-1,2-oxazol-3-yl)ethanamide] | 5.37 | 
4 | Cc1cc(NC(=O)CS(=O)(=O)c2cn(Cc3cccc(F)c3)c3ccccc23)no1 [2-[[1-[(3-fluorophenyl)methyl]-3-indolyl]sulfonyl]-N-(5-methyl-3-isoxazolyl)acetamide] | 5.22 | 
5 | Cc1cc(NC(=O)CS(=O)(=O)c2cn(Cc3cccc(Cl)c3)c3ccccc23)no1 [VU0366968-1] | 5.82 | 
6 | COc1cccc(Cn2cc(S(=O)(=O)CC(=O)Nc3cc(C)on3)c3ccccc32)c1 [VU0366971-1] | 6.54 | 
7 | Cc1cc(NC(=O)CS(=O)(=O)c2cn(Cc3ccc(F)nc3)c3ccccc23)no1 [VU0404018] | 10 | 

The next lines start with the values.

Row | EC50 [µM] | EC50 (inactive by the depositor's call) [µM] | SMILES
8 | 2.19 |  | Cc1cc(NC(=O)CS(=O)(=O)c2cn(Cc3cccc(-c4cn[nH]c4)c3)c3ccccc23)no1
9 | 5.1 |  | Cc1cc(NC(=O)CS(=O)(=O)c2cn(Cc3cccc(Cl)c3F)c3ccccc23)no1
10 | 4.4 |  | Cc1cc(NC(=O)CS(=O)(=O)c2cn(Cc3cccc(-c4cc[nH]n4)c3F)c3ccccc23)no1
11 | 3.79 |  | Cc1cc(NC(=O)CS(=O)(=O)c2cn(Cc3cccc(Br)c3)c3ccccc23)no1 [2-[[1-[(3-bromophenyl)methyl]-3-indolyl]sulfonyl]-N-(5-methyl-3-isoxazolyl)acetamide]
12 | 1.38 |  | Cc1cc(NC(=O)CS(=O)(=O)c2cn(Cc3cc(Br)ccc3F)c3ccccc23)no1 [2-[[1-[(5-bromo-2-fluorophenyl)methyl]-3-indolyl]sulfonyl]-N-(5-methyl-3-isoxazolyl)acetamide]
13 | 3.07 |  | Cc1cc(NC(=O)CS(=O)(=O)c2cn(Cc3cc(-c4cc[nH]n4)ccc3F)c3ccccc23)no1 [2-[[1-[[2-fluoro-5-(1H-pyrazol-5-yl)phenyl]methyl]-3-indolyl]sulfonyl]-N-(5-methyl-3-isoxazolyl)acetamide]
14 | 3.21 |  | Cc1cc(NC(=O)CS(=O)(=O)c2cn(Cc3cccc(-c4ccn(C)n4)c3)c3ccccc23)no1 [VU0402606-1]
15 | 1.85 |  | Cc1cc(NC(=O)CS(=O)(=O)c2cn(Cc3cccc(-c4cn[nH]c4)c3)c3cc(F)cc(F)c23)no1 [VU0405645-1]
